Target: T1, hMC2 receptor (crude hMC2R membranes from CRE-bla-CHO-K1 cells stably expressing hMC2 receptor and hMRAP accessory protein) (Homo sapiens, UniProt Q01718)
T1 construct: crude membrane fractions
Assay: hMC2 membrane binding assay ([125I]ACTH (1-39) Tyr23, SPA)
Details: displacement of 0.2 nM [125I]ACTH (1-39) Tyr23 from hMC2R membranes, 1.5 hours at room temperature; read-out: MC2R binding potency
Outline: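 Ki values come from non-linear regression of SPA scintillation counts, with compounds displacing [125I]ACTH(1-39) Tyr23. Membranes come from CRE-bla-CHO-K1 cells stably expressing hMC2 receptor together with hMRAP. They are preincubated with WGA-coated PVT SPA beads in 50 mM HEPES pH 7.4 with 0.20% BSA, Mg2+, Ca2+ and protease inhibitors.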

T1 sequence (Q01718 whole entry): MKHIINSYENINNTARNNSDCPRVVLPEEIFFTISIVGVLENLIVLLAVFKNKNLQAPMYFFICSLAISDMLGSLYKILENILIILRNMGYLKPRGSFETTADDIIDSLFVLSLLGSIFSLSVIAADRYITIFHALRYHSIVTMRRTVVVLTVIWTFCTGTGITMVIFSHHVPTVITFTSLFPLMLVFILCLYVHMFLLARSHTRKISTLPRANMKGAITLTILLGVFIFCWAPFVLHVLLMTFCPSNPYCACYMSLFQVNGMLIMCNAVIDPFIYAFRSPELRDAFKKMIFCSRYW
T1 sequence (Q8TCY5 whole entry partner): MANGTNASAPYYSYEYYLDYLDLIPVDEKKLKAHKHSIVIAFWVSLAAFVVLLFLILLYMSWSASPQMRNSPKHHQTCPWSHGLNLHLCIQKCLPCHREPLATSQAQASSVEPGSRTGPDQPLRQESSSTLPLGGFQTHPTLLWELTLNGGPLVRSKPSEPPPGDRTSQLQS

| Compound | Ki [µM] |
| --- | --- |
| CCOc1ncccc1-c1ccc(C2(C(=O)N[C@H]3CCN(C)C3)CCN(c3ccc(C(F)(F)F)cc3F)CC2)cn1 [Compound 1-186, 4-{2′-ethoxy-[2,3′-bipyridin]-5-yl}-1-[2-fluoro-4-(trifluoromethyl)phenyl]-N-[(3S)-1-methylpyrrolidin-3-yl]piperidine-4-carboxamide] | < 0.01 |
| CCOc1ncccc1-c1ccc(C2(C(=O)N[C@H]3CCN(C)C3)CCN(c3ccc(C#N)cc3C(F)(F)F)CC2)cn1 [Compound 1-38, 1-[4-cyano-2-(trifluoromethyl)phenyl]-4-{2′-ethoxy-[2,3′-bipyridin]-5-yl}-N-[(3S)-1-methylpyrrolidin-3-yl]piperidine-4-carboxamide] | < 0.01 |
| (3R)-1-methylpyrrolidin-3-yl N-{1-[2-cyano-4-(trifluoromethyl)phenyl]-4-{2′-ethoxy-[2,3′-bipyridin]-5-yl}piperidin-4-yl}carbamate [Compound 2-22] | < 0.01 |
| COc1ccccc1-c1ccc(C2(C(=O)NCCN(C)C)CCN(c3ccc(C(F)(F)F)cc3Cl)CC2)cn1 [Compound 1-255, 1-[2-chloro-4-(trifluoromethyl)phenyl]-N-[2-(dimethylamino)ethyl]-4-[6-(2-methoxyphenyl)pyridin-3-yl]piperidine-4-carboxamide] | < 0.01 |
| COc1ncccc1-c1ccc(C2(C(=O)NCCN(C)C)CCN(c3ccc(C(F)(F)F)cc3Cl)CC2)cn1 [Compound 1-273, 1-[2-chloro-4-(trifluoromethyl)phenyl]-N-[2-(dimethylamino)ethyl]-4-{2′-methoxy-[2,3′-bipyridin]-5-yl}piperidine-4-carboxamide] | < 0.01 |
| CN1CCC[C@@H]1CNC(=O)C1(c2ccc(-c3cccn3C)nc2)CCN(c2ccc(C(F)(F)F)cc2C#N)CC1 [Compound 1-232, 1-[2-cyano-4-(trifluoromethyl)phenyl]-4-[6-(1-methyl-1H-pyrrol-2-yl)pyridin-3-yl]-N-{[(2R)-1-methylpyrrolidin-2-yl]methyl}piperidine-4-carboxamide] | < 0.01 |
| CN1CC[C@@H](NC(=O)C2(c3ccc(-c4ccccc4CC#N)nc3)CCN(c3ccc(C(F)(F)F)cc3C#N)CC2)C1 [Compound 1-137, 1-[2-cyano-4-(trifluoromethyl)phenyl]-4-{6-[2-(cyanomethyl)phenyl]pyridin-3-yl}-N-[(3R)-1-methylpyrrolidin-3-yl]piperidine-4-carboxamide] | 0.01 to 0.1 |
| CCOc1ccccc1-c1ccc(C2(C(=O)NC3CN(C)C3)CCN(c3ccc(C(F)(F)F)cc3C#N)CC2)cn1 [Compound 1-76, 1-[2-cyano-4-(trifluoromethyl)phenyl]-4-[6-(2-ethoxyphenyl)pyridin-3-yl]-N-(1-methylazetidin-3-yl)piperidine-4-carboxamide] | < 0.01 |
| COc1sccc1-c1ccc(C2(C(=O)N[C@H]3CCN(C)C3)CCN(c3ccc(C(F)(F)F)cc3Cl)CC2)cn1 [Compound 1-167, 1-[2-chloro-4-(trifluoromethyl)phenyl]-4-[6-(2-methoxythiophen-3-yl)pyridin-3-yl]-N-[(3S)-1-methylpyrrolidin-3-yl]piperidine-4-carboxamide] | < 0.01 |
| COc1ccc(F)cc1-c1ccc(C2(C(=O)N[C@H]3CCN(C)C3)CCN(c3ccc(C(F)(F)F)cc3C#N)CC2)cn1 [Compound 1-102, 1-[2-cyano-4-(trifluoromethyl)phenyl]-4-[6-(5-fluoro-2-methoxyphenyl)pyridin-3-yl]-N-[(3S)-1-methylpyrrolidin-3-yl]piperidine-4-carboxamide] | < 0.01 |
| CN(C)C1(CNC(=O)C2(c3ccc(-c4cccn4C)nc3)CCN(c3ccc(C(F)(F)F)cc3C#N)CC2)CC1 [Compound 1-263, 1-[2-cyano-4-(trifluoromethyl)phenyl]-N-{[1-(dimethylamino)cyclopropyl]methyl}-4-[6-(1-methyl-1H-pyrrol-2-yl)pyridin-3-yl]piperidine-4-carboxamide] | 0.01 to 0.1 |
| COc1ccccc1-c1ccc(C2(NC(=O)OCCN(C)C)CCN(c3ccc(C(F)(F)F)cc3C#N)CC2)cn1 [Compound 2-57, 2-(dimethylamino)ethyl N-{1-[2-cyano-4-(trifluoromethyl)phenyl]-4-[6-(2-methoxyphenyl)pyridin-3-yl]piperidin-4-yl}carbamate] | < 0.01 |
| COc1ccccc1-c1ccc(C2(C(=O)N[C@@H]3CCN(C)C3)CCN(c3ccc(C(F)(F)F)cc3C#N)CC2)cn1 [Compound 1-52, 1-[2-cyano-4-(trifluoromethyl)phenyl]-4-[6-(2-methoxyphenyl)pyridin-3-yl]-N-[(3R)-1-methylpyrrolidin-3-yl]piperidine-4-carboxamide] | < 0.01 |
| COc1ccccc1-c1ccc(C2(C(=O)NCC3CN(C)C3)CCN(c3ccc(C(F)(F)F)cc3C#N)CC2)cn1 [Compound 1-211, 1-[2-cyano-4-(trifluoromethyl)phenyl]-4-[6-(2-methoxyphenyl)pyridin-3-yl]-N-[(1-methylazetidin-3-yl)methyl]piperidine-4-carboxamide] | < 0.01 |
| CCOc1ncccc1-c1ccc(C2(C(=O)NC[C@H](C)N)CCN(c3ccc(C(F)(F)F)cc3C#N)CC2)cn1 [Compound 1-16, N-[(2S)-2-aminopropyl]-1-[2-cyano-4-(trifluoromethyl)phenyl]-4-{2′-ethoxy-[2,3′-bipyridin]-5-yl}piperidine-4-carboxamide] | < 0.01 |
| COc1ccccc1-c1ncc(C2(NC(=O)CN(C)C)CCN(c3ccc(C(F)(F)F)cc3C#N)CC2)cc1F [Compound 2-61, N-{1-[2-cyano-4-(trifluoromethyl)phenyl]-4-[5-fluoro-6-(2-methoxyphenyl)pyridin-3-yl]piperidin-4-yl}-2-(dimethylamino)acetamide] | < 0.01 |
| COc1ccccc1-c1ccc(C2(NC(=O)O[C@H]3CCN(C)C3)CCN(c3ccc(C(F)(F)F)cc3C#N)CC2)cn1 [Compound 2-53, (3S)-1-methylpyrrolidin-3-yl N-{1-[2-cyano-4-(trifluoromethyl)phenyl]-4-[6-(2-methoxyphenyl)pyridin-3-yl]piperidin-4-yl}carbamate] | < 0.01 |
| CCOc1ncccc1-c1ncc(C2(C(=O)NCCN(C)C)CCN(c3ccc(C(F)(F)F)cc3C#N)CC2)cc1F [Compound 1-308, 1-[2-cyano-4-(trifluoromethyl)phenyl]-N-[2-(dimethylamino)ethyl]-4-{2′-ethoxy-3-fluoro-[2,3′-bipyridin]-5-yl}piperidine-4-carboxamide] | < 0.01 |
| Cn1cccc1-c1ccc(C2(C(=O)N[C@H]3C[C@H](N)C3)CCN(c3ccc(C(F)(F)F)cc3C#N)CC2)cn1 [Compound 1-234, 1-[2-cyano-4-(trifluoromethyl)phenyl]-4-[6-(1-methyl-1H-pyrrol-2-yl)pyridin-3-yl]-N-[(1R,3R)-3-aminocyclobutyl]piperidine-4-carboxamide] | 0.01 to 0.1 |
| CN1CC[C@H](NC(=O)C2(c3ccc(-c4cccn4C)nc3)CCN(c3ccc(C(F)(F)F)cc3C#N)CC2)C1 [Compound 1-100, 1-[2-cyano-4-(trifluoromethyl)phenyl]-4-[6-(1-methyl-1H-pyrrol-2-yl)pyridin-3-yl]-N-[(3S)-1-methylpyrrolidin-3-yl]piperidine-4-carboxamide] | < 0.01 |
| CN1CC[C@H](NC(=O)C2(c3ccc(-c4cccn4C)nn3)CCN(c3ccc(C(F)(F)F)cc3C#N)CC2)C1 [Compound 1-168, 1-[2-cyano-4-(trifluoromethyl)phenyl]-4-[6-(1-methyl-1H-pyrrol-2-yl)pyridazin-3-yl]-N-[(3S)-1-methylpyrrolidin-3-yl]piperidine-4-carboxamide] | < 0.01 |
| CN1CC[C@@H](NC(=O)C2(c3ccc(-c4ccccc4OC(F)F)nc3)CCN(c3ccc(C(F)(F)F)cc3C#N)CC2)C1 [Compound 1-114, 1-[2-cyano-4-(trifluoromethyl)phenyl]-4-{6-[2-(difluoromethoxy)phenyl]pyridin-3-yl}-N-[(3R)-1-methylpyrrolidin-3-yl]piperidine-4-carboxamide] | < 0.01 |
| CCOc1ncccc1-c1ccc(C2(NC(=O)CCNC)CCN(c3ccc(C(F)(F)F)cc3C#N)CC2)cn1 [Compound 2-5, N-{1-[2-cyano-4-(trifluoromethyl)phenyl]-4-{2′-ethoxy-[2,3′-bipyridin]-5-yl}piperidin-4-yl}-3-(methylamino)propanamide] | < 0.01 |
| CCOc1ncccc1-c1ccc(C2(C(=O)NCCNC)CCN(c3ccc(C(F)(F)F)cc3Cl)CC2)cn1 [Compound 1-225, 1-[2-chloro-4-(trifluoromethyl)phenyl]-4-{2′-ethoxy-[2,3′-bipyridin]-5-yl}-N-[2-(methylamino)ethyl]piperidine-4-carboxamide] | < 0.01 |
| CCOc1ccccc1-c1ncc(C2(C(=O)NCCNC)CCN(c3ccc(C(F)(F)F)cc3Cl)CC2)cc1F [Compound 1-292, 1-[2-chloro-4-(trifluoromethyl)phenyl]-4-[6-(2-ethoxyphenyl)-5-fluoropyridin-3-yl]-N-[2-(methylamino)ethyl]piperidine-4-carboxamide] | < 0.01 |
| COc1ccccc1-c1ccc(C2(NC(=O)NCCN(C)C)CCN(c3ccc(C(F)(F)F)cc3C#N)CC2)cn1 [Compound 2-58, 1-{1-[2-cyano-4-(trifluoromethyl)phenyl]-4-[6-(2-methoxyphenyl)pyridin-3-yl]piperidin-4-yl}-3-[2-(dimethylamino)ethyl]urea] | < 0.01 |
| CN1CC[C@@H](C(=O)NC2(c3ccc(-c4cccn4C)nc3)CCN(c3ccc(C(F)(F)F)cc3C#N)CC2)C1 [Compound 2-47, (3R)—N-{1-[2-cyano-4-(trifluoromethyl)phenyl]-4-[6-(1-methyl-1H-pyrrol-2-yl)pyridin-3-yl]piperidin-4-yl}-1-methylpyrrolidine-3-carboxamide] | < 0.01 |
